Test results from patent US20080051387A1, “TETRAHYDROPYRIDO[3,4-D]PYRIMIDINES AND RELATED ANALOGUES” (priority 2006, published 2008).

What follows are compounds tested against T1, chimeric human H3 receptor (Homo sapiens, UniProt Q9Y5N1) (assay: Chimeric human H3 receptor screening GTP binding assay (inhibition of histamine-stimulated GTP-gamma35S binding, Example 8)). Conditions: 1 h; assay described in Example 8; symbol "!" in column headed Ki; read-out: Ki ("!": percent inhibition of agonist-induced GTP-gammaS binding to H3).
T1 construct: rat Galpha-i2 (Gnai2, rat); made in house; host or cells: Sf9 insect cells (baculovirus); P2 membranes
T1 sequence (Q9Y5N1 with tags, fused parts or gaps): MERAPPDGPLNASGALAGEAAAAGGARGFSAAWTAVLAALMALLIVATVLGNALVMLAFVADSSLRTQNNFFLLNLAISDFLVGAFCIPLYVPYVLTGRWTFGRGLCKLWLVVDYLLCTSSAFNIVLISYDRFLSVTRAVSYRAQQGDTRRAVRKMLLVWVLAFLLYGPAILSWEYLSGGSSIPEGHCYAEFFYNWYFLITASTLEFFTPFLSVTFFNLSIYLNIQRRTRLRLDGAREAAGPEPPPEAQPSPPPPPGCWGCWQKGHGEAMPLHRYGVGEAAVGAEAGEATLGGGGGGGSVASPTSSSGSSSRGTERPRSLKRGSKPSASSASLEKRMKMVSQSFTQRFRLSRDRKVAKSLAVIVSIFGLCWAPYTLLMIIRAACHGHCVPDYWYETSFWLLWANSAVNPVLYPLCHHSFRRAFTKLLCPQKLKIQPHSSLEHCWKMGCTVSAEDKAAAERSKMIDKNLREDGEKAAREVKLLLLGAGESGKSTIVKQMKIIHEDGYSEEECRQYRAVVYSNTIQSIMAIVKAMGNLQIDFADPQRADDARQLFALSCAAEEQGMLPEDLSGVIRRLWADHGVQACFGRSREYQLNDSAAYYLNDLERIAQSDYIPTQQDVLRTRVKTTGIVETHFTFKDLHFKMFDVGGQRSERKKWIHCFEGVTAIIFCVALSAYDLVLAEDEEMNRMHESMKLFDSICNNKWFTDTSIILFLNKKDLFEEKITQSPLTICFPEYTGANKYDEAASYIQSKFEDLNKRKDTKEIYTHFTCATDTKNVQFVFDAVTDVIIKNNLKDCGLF
Assay type: biochemical
How it was run: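 Sf9 membranes co-expressing chimeric human H3 receptor and heterotrimeric G-protein (35 μg protein) incubated 60 min at room temperature with 4 μM compound, 1 μM histamine and 125 pM GTP-gamma35S in pH 7.4 buffer with 10 μM GDP. Filter-bound radioactivity, nonspecific (10 μM GTP-gammaS) subtracted, reported as % inhibition of histamine signal.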

SMILES | inhibition at 4 µM [%]
O=C(c1cccnc1Oc1ccc(Cl)cc1)N1CCc2cnc(N3CCN(C4CCC4)CC3)nc2CC1 [Compound 497] | ≥ 90
CNc1ccccc1C(=O)N1CCc2cnc(N3CCN(C4CCC4)CC3)nc2CC1 [Compound 534, 2-{[2-(4-cyclobutylpiperazin-1-yl)-5,6,8,9-tetrahydro-7H-pyrimido[4,5-d]azepin-7-yl]carbonyl}-N-methylaniline] | ≥ 90
O=C(c1cc(-c2ccc(Cl)cc2)oc1C(F)(F)F)N1CCc2cnc(N3CCN(C4CCC4)CC3)nc2CC1 [Compound 470, 7-[5-(4-chlorophenyl)-2-(trifluoromethyl)-3-furoyl]-2-(4-cyclobutylpiperazin-1-yl)-6,7,8,9-tetrahydro-5H-pyrimido[4,5-d]azepine] | ≥ 90
O=C(c1cccnc1Oc1ccccc1)N1CCc2cnc(N3CCN(C4CCC4)CC3)nc2CC1 [Compound 495, 2-(4-cyclobutylpiperazin-1-yl)-7-[(2-phenoxypyridin-3-yl)carbonyl]-6,7,8,9-tetrahydro-5H-pyrimido[4,5-d]azepine] | ≥ 90
COc1cc(Cl)c(C(=O)N2CCc3cnc(N4CCN(C5CCC5)CC4)nc3CC2)cc1OC [Compound 428, 7-(2-chloro-4,5-dimethoxybenzoyl)-2-(4-cyclobutylpiperazin-1-yl)-6,7,8,9-tetrahydro-5H-pyrimido[4,5-d]azepine] | ≥ 90
CSc1sc(C(=O)N2CCc3cnc(N4CCN(C5CCC5)CC4)nc3CC2)c2c1C=CCC2 [Compound 458, 2-(4-cyclobutylpiperazin-1-yl)-7-{[3-(methylthio)-6,7-dihydro-2-benzothien-1-yl]carbonyl}-6,7,8,9-tetrahydro-5H-pyrimido[4,5-d]azepine] | ≥ 90

Same assay, conditions: 1 h; assay of Example 8; symbol "!" in column headed Ki; read-out: percent inhibition of agonist-induced GTP-gammaS binding to H3

SMILES | inhibition at 4 µM [%]
O=C(Cc1ccc(C(F)(F)F)cc1)N1CCc2cnc(N3CCN(C4CCC4)CC3)nc2CC1 [Compound 287, 2-(4-cyclobutylpiperazin-1-yl)-7-{[4-(trifluoromethyl)phenyl]acetyl}-6,7,8,9-tetrahydro-5H-pyrimido[4,5-d]azepine] | ≥ 90
COc1ccc(OCC(=O)N2CCc3cnc(N4CCN(C5CCC5)CC4)nc3CC2)cc1 [Compound 325, 2-(4-cyclobutylpiperazin-1-yl)-7-[(4-methoxyphenoxy)acetyl]-6,7,8,9-tetrahydro-5H-pyrimido[4,5-d]azepine] | ≥ 90
O=C(COc1ccc(Cl)cc1Cl)N1CCc2cnc(N3CCN(C4CCC4)CC3)nc2CC1 [Compound 331, 2-(4-cyclobutylpiperazin-1-yl)-7-[(2,4-dichlorophenoxy)acetyl]-6,7,8,9-tetrahydro-5H-pyrimido[4,5-d]azepine] | ≥ 90
CCCC(C)CN1CCc2cnc(N3CCN(C4CCC4)CC3)nc2CC1 (stereo not shown) [Compound 255, 2-(4-cyclobutylpiperazin-1-yl)-7-(2-methylpentyl)-6,7,8,9-tetrahydro-5H-pyrimido[4,5-d]azepine] | ≥ 90
O=C(C1CCOC1)N1CCc2cnc(N3CCN(C4CCC4)CC3)nc2CC1 (stereo not shown) [Compound 221, 2-(4-cyclobutylpiperazin-1-yl)-7-(tetrahydrofuran-3-ylcarbonyl)-6,7,8,9-tetrahydro-5H-pyrimido[4,5-d]azepine] | ≥ 90
O=C(Cc1cccc(C(F)(F)F)c1F)N1CCc2cnc(N3CCN(C4CCC4)CC3)nc2CC1 [Compound 292, 2-(4-cyclobutylpiperazin-1-yl)-7-{[2-fluoro-3-(trifluoromethyl)phenyl]acetyl}-6,7,8,9-tetrahydro-5H-pyrimido[4,5-d]azepine] | ≥ 90
Clc1ccc(CN2CCc3cnc(N4CCN(C5CCC5)CC4)nc3CC2)c(Cl)c1 [Compound 266, 2-(4-cyclobutylpiperazin-1-yl)-7-(2,4-dichlorobenzyl)-6,7,8,9-tetrahydro-5H-pyrimido[4,5-d]azepine] | ≥ 90
Fc1ccc(CN2CCc3cnc(N4CCN(C5CCC5)CC4)nc3CC2)cc1 [Compound 232, 2-(4-cyclobutylpiperazin-1-yl)-7-(4-fluorobenzyl)-6,7,8,9-tetrahydro-5H-pyrimido[4,5-d]azepine] | ≥ 90
CCC(C)CN1CCc2cnc(N3CCN(C4CCC4)CC3)nc2CC1 (stereo not shown) [Compound 252, 2-(4-cyclobutylpiperazin-1-yl)-7-(2-methylbutyl)-6,7,8,9-tetrahydro-5H-pyrimido[4,5-d]azepine] | ≥ 90
c1nc(N2CCN(C3CCC3)CC2)nc2c1CCN(CC1CC1)CC2 [Compound 254, 2-(4-cyclobutylpiperazin-1-yl)-7-(cyclopropylmethyl)-6,7,8,9-tetrahydro-5H-pyrimido[4,5-d]azepine] | ≥ 90
CC(CC(=O)N1CCc2cnc(N3CCN(C4CCC4)CC3)nc2CC1)Sc1ccc(Cl)cc1 (stereo not shown) [Compound 342, 7-{3-[(4-chlorophenyl)thio]butanoyl}-2-(4-cyclobutylpiperazin-1-yl)-6,7,8,9-tetrahydro-5H-pyrimido[4,5-d]azepine] | ≥ 90
CC(C)(Oc1ccc(Cl)cc1)C(=O)N1CCc2cnc(N3CCN(C4CCC4)CC3)nc2CC1 [Compound 337, 7-[2-(4-chlorophenoxy)-2-methylpropanoyl]-2-(4-cyclobutylpiperazin-1-yl)-6,7,8,9-tetrahydro-5H-pyrimido[4,5-d]azepine] | ≥ 90
Cc1cccc(CN2CCc3cnc(N4CCN(C5CCC5)CC4)nc3CC2)c1 [Compound 233, 2-(4-cyclobutylpiperazin-1-yl)-7-(3-methylbenzyl)-6,7,8,9-tetrahydro-5H-pyrimido[4,5-d]azepine] | ≥ 90
CCC(CC)CN1CCc2cnc(N3CCN(C4CCC4)CC3)nc2CC1 [Compound 253, 2-(4-cyclobutylpiperazin-1-yl)-7-(2-ethylbutyl)-6,7,8,9-tetrahydro-5H-pyrimido[4,5-d]azepine] | ≥ 90
O=C(COc1ccc(Cl)c(Cl)c1)N1CCc2cnc(N3CCN(C4CCC4)CC3)nc2CC1 [Compound 332, 2-(4-cyclobutylpiperazin-1-yl)-7-[(3,4-dichlorophenoxy)acetyl]-6,7,8,9-tetrahydro-5H-pyrimido[4,5-d]azepine] | ≥ 90
Cc1cc(CN2CCc3cnc(N4CCN(C5CCC5)CC4)nc3CC2)n(C)n1 [Compound 241, 2-(4-cyclobutylpiperazin-1-yl)-7-[(1,3-dimethyl-1H-pyrazol-5-yl)methyl]-6,7,8,9-tetrahydro-5H-pyrimido[4,5-d]azepine] | ≥ 90
O=C(Cc1cc(Cl)ccc1Br)N1CCc2cnc(N3CCN(C4CCC4)CC3)nc2CC1 [Compound 301, 7-[(2-bromo-5-chlorophenyl)acetyl]-2-(4-cyclobutylpiperazin-1-yl)-6,7,8,9-tetrahydro-5H-pyrimido[4,5-d]azepine] | ≥ 90
COc1ccc(CC(=O)N2CCc3cnc(N4CCN(C5CCC5)CC4)nc3CC2)c(OC)c1 [Compound 310, 2-(4-cyclobutylpiperazin-1-yl)-7-[(2,4-dimethoxyphenyl)acetyl]-6,7,8,9-tetrahydro-5H-pyrimido[4,5-d]azepine] | ≥ 90

Same assay, conditions: symbol ! in Ki; test compound 4 μM, 1 μM histamine; read-out: percent inhibition of agonist-induced GTP-gammaS binding to H3

SMILES | inhibition at 4 µM [%]
CCCCC(=O)N1CCc2c(ncnc2N2CCN(C3CCC3)CC2)C1 [Compound 44, 4-(4-cyclobutylpiperazin-1-yl)-7-pentanoyl-5,6,7,8-tetrahydropyrido[3,4-d]pyrimidine] | ≥ 90
CCC(C)N1CCc2c(ncnc2N2CCN(C3CCC3)CC2)C1 (stereo not shown) [Compound 117, 7-sec-butyl-4-(4-cyclobutylpiperazin-1-yl)-5,6,7,8-tetrahydropyrido[3,4-d]pyrimidine] | ≥ 90
CC(c1cnc2ccccc2c1)N1CCc2c(ncnc2N2CCN(C3CCC3)CC2)C1 (stereo not shown) [Compound 109, 4-(4-cyclobutylpiperazin-1-yl)-7-(1-quinolin-3-ylethyl)-5,6,7,8-tetrahydropyrido[3,4-d]pyrimidine] | ≥ 90
CCN(CCN(C)C)c1ncnc2c1CCN(Cc1ccccc1)C2 [Compound 14, N-(7-benzyl-5,6,7,8-tetrahydropyrido[3,4-d]pyrimidin-4-yl)-N-ethyl-N′,N′-dimethylethane-1,2-diamine] | ≥ 90
Fc1ccc(CN2CCc3ncnc(N4CCN(C5CCC5)CC4)c3CC2)cc1 [Compound 147, 4-(4-cyclobutylpiperazin-1-yl)-7-(4-fluorobenzyl)-6,7,8,9-tetrahydro-5H-pyrimido[4,5-d]azepine] | ≥ 90
COCCOCC(=O)N1CCc2c(ncnc2N2CCN(C3CCC3)CC2)C1 [Compound 65, 4-(4-cyclobutylpiperazin-1-yl)-7-[(2-methoxyethoxy)acetyl]-5,6,7,8-tetrahydropyrido[3,4-d]pyrimidine] | ≥ 90
COc1cccc(CN2CCc3nc(N4CCN(C5CCC5)CC4)ncc3C2)c1OC [Compound 640, 2-(4-cyclobutylpiperazin-1-yl)-6-(2,3-dimethoxybenzyl)-5,6,7,8-tetrahydropyrido[4,3-d]pyrimidine] | ≥ 90
CC(c1ccccc1Cl)N1CCc2c(ncnc2N2CCN(C3CCC3)CC2)C1 (stereo not shown) [Compound 135, 7-[1-(2-chlorophenyl)ethyl]-4-(4-cyclobutylpiperazin-1-yl)-5,6,7,8-tetrahydropyrido[3,4-d]pyrimidine] | ≥ 90

Same assay, conditions: test compound 4 μM, 1 μM histamine; read-out: percent inhibition of agonist-induced GTP-gammaS binding to H3

SMILES | inhibition at 4 µM [%]
CC(=O)c1ccc(N2CCc3cnc(N4CCN(C5CCC5)CC4)nc3CC2)cc1 [Compound 11, 1-{4-[2-(4-Cyclobutyl-piperazin-1-yl)-5,6,8,9-tetrahydro-pyrimido[4.5-d]azepin-7-yl]-phenyl}-ethanone] | ≥ 90
O=S(=O)(c1ccccc1)N1CCc2cnc(N3CCN(C4CCC4)CC3)nc2CC1 [Compound 12, 7-Benzenesulfonyl-2-(4-Cyclobutyl-piperazin-1-yl)-6,7,8,9-tetrahydro-5H-pyrimido[4.5-d]azepine] | ≥ 90
